One series addresses T1, LXRβ (Homo sapiens, UniProt P55055).
T1 sequence (P55055 1-460): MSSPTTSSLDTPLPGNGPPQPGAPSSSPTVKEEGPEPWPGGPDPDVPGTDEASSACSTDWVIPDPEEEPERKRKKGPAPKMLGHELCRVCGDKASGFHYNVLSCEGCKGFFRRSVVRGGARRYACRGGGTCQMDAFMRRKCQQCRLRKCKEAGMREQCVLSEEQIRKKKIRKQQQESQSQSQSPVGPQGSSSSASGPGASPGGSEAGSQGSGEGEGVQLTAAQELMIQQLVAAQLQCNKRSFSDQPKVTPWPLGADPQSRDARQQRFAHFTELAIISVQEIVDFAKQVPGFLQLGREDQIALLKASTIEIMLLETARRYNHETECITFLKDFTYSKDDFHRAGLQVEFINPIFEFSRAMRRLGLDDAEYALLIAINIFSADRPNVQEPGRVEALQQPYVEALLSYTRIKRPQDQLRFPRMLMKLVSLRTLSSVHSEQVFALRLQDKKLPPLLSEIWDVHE
Nature of the series: LXRβ NHR screen (DiscoverX NHR-Scan, β-gal reporter). In kind it is cell-based. On the procedure:
Receptor Binding Assays. Nuclear hormone (NHR) assays were performed by DiscoverX (Fremont, CA) on their NHR-Scan platform of cell-based protein-protein interaction assays. This platform uses a […] reporter that activates upon interaction of full-length receptor protein with steroid coactivator receptor peptides. In agonist mode, activity of CL2-57 at 10 μM was compared to maximal activity of published positive control agonists; in antagonist mode, reduction in activity with 10 μM CL2-57 from that observed at […] of published agonists was quantified.

The next series has as its system ABCA1 mRNA. Nature of the series: ABCA1 mRNA - HepG2 (qRT-PCR). It counts as cell-based, human. (Real-time PCR tracks product formation cycle by cycle.)
A further series relates to ABCA1 protein. Nature of the series: ABCA1 protein - HepG2 (immunoblot). As to conditions: HepG2 hepatocarcinoma cells. It counts as cell-based. On the procedure:
In vitro Immunoblot. Cells were lysed with RIPA buffer (Sigma) containing protease/phosphatase inhibitors (Cocktails II and III, respectively, EMD Millipore). Protein was quantified by BCA assay (Thermo Fisher Scientific). Denatured proteins were separated by gel electrophoresis (NuPage™ 4-12% Bis-Tris, Invitrogen) in MOPS running buffer at 120 V for 1 hour. Proteins were transferred to PDVF membranes (iBlot2). Membrane was blocked in 5% skim milk for 1 hour, incubated with primary antibody at 4° C. overnight, washed with TBST, and then incubated with HRP-linked secondary antibody (Cell Signaling Technology) for 1 hour at room temperature. After TBST wash, membrane was imaged using SUPERSIGNAL® West Femto™ substrate (Thermo Fisher Scientific) on Azure Biosystems c400 imager. Antibodies used: Abcam ab18180 (ABCA1, RRID:AB 444302), Thermo Fisher MA5-11685 (SREBP1, RRID:AB_10984077), Invitrogen MA5-15738 (GAPDH, RRID:AB_10977387).
In general terms: Immunoblotting shows a protein as a band on a membrane.

The subject of series [1] is J774 cells. Nature of the series: BODIPY-cholesterol efflux from J774 macrophages to apoA1. It counts as cell-based. On the procedure:
Cholesterol Efflux. Plated J774 cells (RRID:CVCL 0358) purchased from ATCC and used without further validation were incubated in serum-free medium containing 0.5 μM BODIPY-cholesterol (Cayman) for 24 hours. Medium was replaced with fresh serum-free medium containing test compound for 24 hours. For experiments with probucol (Sigma), it was added at 20 μM for the final 2 hours with test compound. Then, fresh serum-free medium containing 20 μg/mL purified recombinant apolipoprotein A1 (Sigma) was added for 6 hours. Acceptor-containing medium was transferred to a new plate, while cells were lysed with RIPA buffer. Fluorescence (Ex480/Em530) was measured in both components, with data reported as % efflux=(medium fluorescence)/(medium fluorescence+lysate fluorescence) normalized to background efflux (% efflux in DMSO-treated cells without exogenous apoA1).

The test system of a further series is CD1 mice. Nature of the series: CD1 mice, three daily p.o. treatments, LXR agonist adverse effects. In kind it is in vivo, mouse. As to conditions: 10 mg/kg p.o., three days. From the text: Neutrophil Counts. […] After final dose, blood samples were run on an Advia 120 analyzer (Bayer) for neutrophil counts.
The subject of series [2] is J774 cells. Nature of the series: siRNA knockdown of LXRα/LXRβ in J774 cells. It counts as cell-based. The method, then: siRNA Knockdown. J774 cells were plated in 24-well plates in serum-containing medium, to which an additional 100 μL of medium containing 10 pmol of siRNA and 3 μL of LIPOFECTAMINE® RNAIMAX® transfection reagent (Thermo Fisher Scientific) were added. After 24 hours, serum-free medium containing 10 μM C12-57 or vehicle control was added to each well for 24 hours. Cells were lysed and analyzed per qPCR and immunoblot procedures above. siRNAs used: Thermo Fisher 188584 (Nr1h3 silencer), 186947 (Nr1h2 silencer), and AM4611 (Silencer Negative Control siRNA #1).

In a further series the test system is C57Bl/6 control mice. Nature of the series: C57Bl/6 control mice, daily p.o. CL2-57 for one week. It counts as in vivo, mouse.

As for `CCOC(=O)c1cccc(NC(=O)c2sc(Cl)cc2S(=O)(=O)N(C)c2ccc(OCC)c(OCC)c2)c1` [CL2-57, ethyl 3-(5-chloro-3-(N-(3,4-diethoxyphenyl)-N-methylsulfamoyl)thiophene-2-carboxamido) benzoate], the “LXRβ NHR screen, activity of CL2-57 (10 μM) as % of T0901317 (1 μM)” value on LXRβ (10 μM) is reported as 75%. Also, at LXRβ (cell-based β-gal reporter assays), the “LXR β/α selectivity by Emax” value turned out to be 2.5 fold. Also, the “Functional mode at LXR” value on LXRβ (cell-based β-gal reporter assays, 10 μM) was “partial LXR agonist”. In addition, the “ABCA1 mRNA - HepG2, activity of CL2-57 (10 μM) as % of T0901317 (1 μM)” value in the series with ABCA1 mRNA (10 μM) amounted to 60%. The “ABCA1 mRNA” value in the series with ABCA1 mRNA (HepG2 hepatocarcinoma cells) is on record as “Increased”. Also, the ABCA1 protein result in the series with ABCA1 protein is on record as “Increased”. Also, the “Cholesterol Efflux - J774, activity of CL2-57 (10 μM) as % of T0901317 (1 μM)” value in the series with J774 cells [1] (10 μM) turned out to be 183%. The “Cholesterol efflux from macrophages to apoA1” value in the series with J774 cells [1] (fluorescent BODIPY-tagged cholesterol) is reported as “dose-dependently increased”. Further, the “Increased cholesterol efflux with ABCA1 inhibitor probucol” value in the series with J774 cells [1] (probucol 20 μM for the final 2 hours) was “blocked”. Also, in the series on CD1 mice, the Circulating neutrophil levels entry is on record as “did not affect”, the “Plasma TG” value is on record as “did not affect” and the Plasma cholesterol entry is “did not affect”. Also, the “ABCA1 induction under LXR siRNA knockdown” value in the series with J774 cells [2] (10 μM, J774) was “mediated by LXRβ”. Moreover, in the series with J774 cells [2] (J774), the “Induction of Abcg1 under LXR siRNA knockdown” value is given as “reduced by LXRβ knockdown”, the “Induction of Slc2a1 (GLUT1) under LXR siRNA knockdown” value was “reduced by LXRβ knockdown” and the “Irs1 increases under LXR siRNA knockdown” value is “not affected by loss of either LXR isoform”. The “LXR target gene Apoe” value in the series on J774 cells [2] (J774 cells) was “not significantly affected”. For the same compound, the Hepatic lipogenesis entry in the series with C57Bl/6 control mice (10 mg/kg daily p.o. one week) is “low-magnitude increases”. Further, the “Plasma TG or cholesterol compared to vehicle controls” value in the series with C57Bl/6 control mice (C57Bl/6 mice, one week daily p.o.) was “no changes”.

The record behind these values is patent US20240199572A1, “COMPOUNDS, COMPOSITIONS, AND METHODS FOR TREATING TYPE 2 DIABETES AND DEMENTIA” (THE BOARD OF TRUSTEES OF THE UNIVERSITY OF ILLINOIS, priority 2021, published 2024).
